Measurements reported in patent US5496849A, “Sulfonic acid derivative and its pharmaceutical application” (Toray Industries, Inc., priority 1992, dated 1996).

What was measured:
[1] = test system: vasoconstriction of rat thoracic aorta induced by U-46619; experiment: Vasoconstriction inhibitory action (U-46619-induced constriction of thoracic aorta spiral specimens); set-up: species or system long Evans rats; conditions: 10 min, pH 7.4, minimum concentration at which inhibition rate was 50% or more, 10 ng/ml U-46619, drug applied 10 minutes, 37° C., read-out: Vasoconstriction Inhibitory Action MIC
Method: Male and female long Evans rats having body weights of 150-200 g were used in this example. After sacrificing the animals by decapitation, the thoracic aorta was removed, and the outer membrane was peeled off to obtain I2 spiral specimens roughly 2 cm in length. Blood vessel specimens were warmed to 37° C. and preserved in a Magnus tube containing 10 ml of a nutrient solution aerated with 95% oxygen+5% carbon dioxide gas. The nutrient solution contained 118.3 mmol of NaCl, 4.7 mmol of KCl, […] of CaCl, 1.2 mmol of MgSO4, 1.2 mmol of KH2 PO4, 25 mmol of NaCHO3, 11.1 mmol of D-glucose, 0.03 mmol of EDTA along with 1 μg/ml each of atropin, phentolamine, mepiramine, cyproheptadine, propranolol and indometacin, and was adjusted to a pH of 7.4. Vasoconstriction was measured using an isometric transducer (Harward UF-1 Transducer and Sekonic SS-250F Graph recorder). An equilibration time of 3 hours was provided after the blood vessels were installed on the Magnus device, and fresh nutrient solution was replaced every 30 minutes during that time. […] of U-46619, having TXA2 action (to reach roughly 75% of maximum constriction), was applied for 30 minutes to constrict the vessels. The maximum stable constriction during this time was taken to be the control constriction (C1). Next, the blood vessels were washed several times with nutrient solution to remove the drug. After allowing a recovery period of 30 minutes, the test drugs were applied at various concentrations for 10 minutes followed by again constricting the vessels by applying 10 ng/ml of U-46619 for 30 minutes. The maximum stable constriction during this time was taken to be the constriction of the test drugs (C2). The inhibition rates of vasoconstriction induced by the drugs and U-46619 were determined according to the following formula, and the minimum concentration at which the inhibition rate was 50% or more was determined as the minimum inhibitory concentration (MIC).
((C1-C2)/C1)×100=Inhibition rate (%)

[2] = test system: platelet aggregation induced by U-46619 in human platelet-rich plasma (PRP); experiment: Platelet aggregation inhibitory action (U-46619-induced, human platelet-rich plasma); format: cell-based; conditions: compounds added 1 minute before U-46619, turbidity
Method: Human whole blood drawn from the median cubital vein was centrifuged for 10 minutes at 800 rpm, and the upper portion was collected as platelet-rich plasma (PRP). […] The size of the aggregates were measured with a platelet aggregate measuring instrument (Hematracer 1, Nikko Bioscience) as the change in turbidity. The compounds were added 1 minute before addition of U-46619, and the concentration which inhibits aggregation by 50% was calculated as the IC50 value.

[3] = biological target: T1, Thromboxane A2 Receptor (Oryctolagus cuniculus, UniProt Q6WQI8); experiment: Receptor binding experiment: Thromboxane A2 Receptor Binding Test ([3H]SQ29548, washed platelets); set-up: species or system New Zealand White rabbits; conditions: rabbit washed platelets; [3H]SQ29548 3 nM; 60 minutes at 25° C.; read-out: Binding Inhibitory Action IC50 (converted)
T1 sequence (Q6WQI8 1-233): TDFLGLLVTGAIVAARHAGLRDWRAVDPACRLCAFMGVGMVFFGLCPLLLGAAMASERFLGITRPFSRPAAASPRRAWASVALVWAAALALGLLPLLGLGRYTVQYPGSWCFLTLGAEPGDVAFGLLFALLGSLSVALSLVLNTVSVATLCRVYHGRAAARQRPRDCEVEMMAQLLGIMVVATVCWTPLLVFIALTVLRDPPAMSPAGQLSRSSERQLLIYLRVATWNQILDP
Method: Whole blood from New Zealand White rabbits was collected into a container containing ACD solution (1.175 g of sodium citrate, 0.685 g of citric acid, and 1 g of dextrose dissolved in 50 ml of distilled water) followed by centrifuging at room temperature for 10 minutes at 180 ×g to obtain platelet-rich plasma. Moreover, this platelet-rich plasma was further centrifuged at room temperature and 2800 ×g to result in sedimentation of the platelets. The platelets were resuspended in 50 mM Tris hydrochloric acid buffer solution (pH 7.2, containing […]) and again centrifuged at 4° C. for 15 minutes at 2800 ×g. This procedure was repeated twice to prepare the washed platelets, and adjusted to a final concentration of 10 mg/ml (wet weight). Tritium-labelled SQ29548 ([3H]SQ29548) was used for the TXA2 ligand. In an antagonism experiment, 20 μl of [3H]SQ29548 at a final concentration of 3 nM were added to 500 μl of a 10 mg/ml platelet suspension, together with adding 2.6 μl of the test drug dissolved in a suitable buffer. After incubating for 60 minutes at 25° C., the mixture was filtered over a glass filter using the Celherbster method, the filter was washed with 50 mM Tris hydrochloric acid buffer solution (3 ×4 ml), and radioactivity was measured with a scintillation counter to determine the amount of [3H]SQ29548 bound to the platelets. In addition, in a saturation test, 20 μl of [3H]SQ29548 were added to a final concentration of 0.1-50 nM followed by the addition of 2.6 μl of BM13505 at a final concentration of 1 μM in order to examine non-specific binding and carry out a binding experiment. The concentration of the test drug which inhibited binding of [3H]SQ29548 by 50% was determined as the IC50 value.

SMILES | minimal effective concentration [1] [µg/mL] | IC50 [2] [nM] | IC50 [3] [nM]
O=C(O)COc1cccc2c1O[C@H]1C[C@@H](O)[C@H](NS(=O)(=O)c3ccc(Cl)cc3)[C@@H]21 (racemic) [(55), (1RS, 2RS, 3aSR, 8bRS)-1-(p-chlorobenzenesulfonamido)-2-hydroxy-2,3,3a,8b-tetrahydro-1H-cyclopenta[b]benzofuran-5-yloxy acetic acid] | 0.1 | 17 | 3.18
O=C(O)COc1cccc2c1O[C@H]1C[C@@H](O)[C@H](NS(=O)(=O)c3cccc(Cl)c3)[C@@H]21 (racemic) [(57), (1RS, 2RS, 3aSR, 8bRS)-1-(m-chlorobenzenesulfonamido)-2-hydroxy-2,3,3a,8b-tetrahydro-1H-cyclopenta[b]benzofuran-5-yloxyacetic acid] | 0.01 | 41 | 22.7
O=C(O)COc1cccc2c1O[C@H]1C[C@@H](O)[C@H](NS(=O)(=O)c3ccc(Br)cc3)[C@@H]21 (racemic) [(61), (1RS, 2RS, 3aSR, 8bRS)-1-(p-bromobenzenesulfonamido)-2-hydroxy-2,3,3a,8b-tetrahydro-1H-cyclopenta[b]benzofuran-5-yloxyacetic acid] | 0.03 | 44 | 2.06
O=C(O)COc1cccc2c1O[C@H]1C[C@@H](O)[C@H](NS(=O)(=O)c3ccc(I)cc3)[C@@H]21 (racemic) [(63), (1RS, 2RS, 3aSR, 8bRS)-1-(p-iodobenzenesulfonamido)-2-hydroxy-2,3,3a,8b-tetrahydro-1H-cyclopenta[b]benzofuran-5-yloxyacetic acid] | 0.01 | 58 | 22.6
O=C(O)COc1cccc2c1O[C@H]1C[C@@H](O)[C@H](NS(=O)(=O)c3ccc([N+](=O)[O-])cc3)[C@@H]21 (racemic) [(68), (1RS, 2RS, 3aSR, 8bRS)-1-(p-nitrobenzenesulfonamido)-2-hydroxy-2,3,3a,8b-tetrahydro-1H-cyclopenta[b]benzofuran-5-yloxyacetic acid] | 0.1 | 140 | 910
O=C(O)COc1cccc2c1O[C@H]1C[C@@H](O)[C@H](NS(=O)(=O)c3ccc(F)cc3F)[C@@H]21 (racemic) [(70), (1RS, 2RS, 3aSR, 8bRS)-1-(2,4-difluorobenzenesulfonamido)-2-hydroxy-2,3,3a,8b-tetrahydro-1H-cyclopenta[b]benzofuran-5-yloxyacetic acid] | 0.03 | 29 | 49.8
O=C(O)COc1cccc2c1O[C@H]1C[C@@H](O)[C@H](NS(=O)(=O)c3ccc(Cl)c(Cl)c3)[C@@H]21 (racemic) [(72), (1RS, 2RS, 3aSR, 8bRS)-1-(3,4-dichlorobenzenesulfonamido)-2-hydroxy-2,3,3a,8b-tetrahydro-1H-cyclopenta[b]benzofuran-5-yloxyacetic acid] | 0.03 | 120 | 25.3
O=C(O)COc1cccc2c1O[C@H]1CC[C@H](NS(=O)(=O)c3ccccc3)[C@@H]21 (racemic) [(90), (1SR, 3aSR, 8bRS)-1-benzenesulfonamido-2,3,3a,8b-tetrahydro-1H-cyclopenta[b]benzofuran-5-yloxyacetic acid] | 0.003 | 99 | 8.47
CO[C@@H]1C[C@@H]2Oc3c(OCC(=O)O)cccc3[C@@H]2[C@H]1NS(=O)(=O)c1ccccc1 (racemic) [(92), (1RS, 2RS, 3aSR, 8bRS)-1-benzenesulfonamido-2-methoxy-2,3,3a,8b-tetrahydro-1H-cyclopenta[b]benzofuran-5-yloxyacetic acid] | 0.1 | 100 | 57.2
O=C(O)COc1cccc2c1O[C@H]1CC[C@@H](NS(=O)(=O)c3ccccc3)[C@@H]21 (racemic) [(94), (1RS, 3aSR, 8bRS)-1-benzenesulfonamido-2,3,3a,8b-tetrahydro-1H-cyclopenta[b]benzofuran-5-yloxyacetic acid] | 0.1 | 68 | 16.7
CCOC(=O)COc1cccc2c1O[C@H]1C[C@@H](O)[C@H](NS(=O)(=O)c3ccccc3)[C@@H]21 (racemic) [(102), (1RS, 2RS, 3aSR, 8bRS)-1-benzenesulfonamido-2-hydroxy2,3,3a,8b-tetrahydro-1H-cyclopenta[b]benzofuran-5-yloxyacetic acid ethyl ester] | 0.03 | 220 | 415
O=C(O)COc1cccc2c1O[C@H]1CC[C@H](OS(=O)(=O)c3ccccc3)[C@@H]21 (racemic) [(121), (1SR, 3aSR, 8bSR)-1-(phenylsulfonyloxy)-2,3,3a,8b-tetrahydro-1H-cyclopenta[b]benzofuran-5-yloxyacetic acid] | 0.003 | 130 | 1.28
Cc1ccc(S(=O)(=O)N[C@@H]2[C@H]3c4cccc(OCC(=O)O)c4O[C@H]3C[C@H]2O)cc1 (relative stereo) [(49), (1RS, 2RS, 3aSR, 8bRS)-1-(p-toluenesulfonamido)-2-hydroxy-2,3,3a,8b-tetrahydro-1H-cyclopenta[b]benzofuran-5-yloxyacetatic acid] | 0.01 | 22 | 8.82
O=C(O)COc1cccc2c1O[C@H]1C[C@@H](O)[C@H](NS(=O)(=O)c3ccccc3Cl)[C@@H]21 (relative stereo) [(59), (1RS, 2RS, 3aSR, 8bRS)-1-(o-chlorobenzenesulfonamido)-2-hydroxy-2,3,3a,8b-tetrahydro-1-cyclopenta[b]benzofuran-5-yloxyacetic acid] | 0.1 | 69 | 22.7
O=C(O)/C=C/c1cccc2c1O[C@H]1C[C@@H](O)[C@H](NS(=O)(=O)c3ccccc3)[C@@H]21 (relative stereo) [(88), (1RS, 2RS, 3aSR, 8bRS)-1-benzenesulfonamido-2-hydroxy-2,3,3a,8b-tetrahydro-1H-cyclopenta[b]benzofuran-5-(E)-acrylic acid] | 0.3 | 450 | 648
O=C(O)COc1ccc(CCNS(=O)(=O)c2ccccc2)cc1 [Control, 4-(2-(benzenesulfonamido)ethyl) phenoxyacetic acid, reference compound] | 0.3 | 5000 | 4170
